Source: patent publication US12410220B2, “Modulation of mammalian cell lineage by synthetic immodulins” (priority 2021, dated 2025)
Marks after values point to notes of the source that are not given here. Peptide text beside a SMILES is read from it.

Legend:
[1] = test system: HFF-1 human fibroblast cell line; assay: Collagen-1 ELISA in HFF-1 dermal fibroblasts; type: cell-based; details: peptide 2 uM, 72 hour incubation
Experimental: Immodulin peptides have potential untility in the field of cosmetics. HFF-1 human fibroblast cell line was obtained from the American Type Culture Collection (ATCC). Cells were grown in a T-75 flask in DMEM Medium containing 10% fetal bovine serum and penicillin-streptomycin at 37° C. in a humidified, 5% CO2 incubator. Cells (100 µl, 2,000 cells/well) were plated in a 96-well plate and incubated overnight at 37° C. in a humidified, 5% CO2 incubator. Next day, 10 µl/well of compounds were added (quadruplicate wells). After 72 hour incubation with the compound, supernatants were collected for Collagen-1 ELISA assay and cell viability was measured in a luminometer after the addition of 100 IL/well CellTiterGlo reagent (Promega Inc, Madison, WI) as recommended by the manufacturer. Collagen stimulating activity of immodulin peptides in HFF-1 dermal fibroblasts: Peptides were added to cells at 2 uM. COL1 immunoreactivity was measured in the supernatants of cultured cells by ELISA using a rabbit monoclonal anti-COL1 primary antibody (Abcam, Cambridge, MA). Control (buffer) value of immunoreactivity was set to 100.

PPAR-gamma = target: T1, PPAR-gamma (Homo sapiens, UniProt P37231); assay: Experiment 4B binding to full length PPAR-gamma; details: 400 ng/well protein; 800 ng/well SA488-labelled peptide, 2 hours
T1 construct: 400 ng/well full length RXR-alpha, RXR-beta, RXR-gamma or PPAR-gamma; purchased Abcam, Cambridge, MA
T1 sequence (P37231 1-505): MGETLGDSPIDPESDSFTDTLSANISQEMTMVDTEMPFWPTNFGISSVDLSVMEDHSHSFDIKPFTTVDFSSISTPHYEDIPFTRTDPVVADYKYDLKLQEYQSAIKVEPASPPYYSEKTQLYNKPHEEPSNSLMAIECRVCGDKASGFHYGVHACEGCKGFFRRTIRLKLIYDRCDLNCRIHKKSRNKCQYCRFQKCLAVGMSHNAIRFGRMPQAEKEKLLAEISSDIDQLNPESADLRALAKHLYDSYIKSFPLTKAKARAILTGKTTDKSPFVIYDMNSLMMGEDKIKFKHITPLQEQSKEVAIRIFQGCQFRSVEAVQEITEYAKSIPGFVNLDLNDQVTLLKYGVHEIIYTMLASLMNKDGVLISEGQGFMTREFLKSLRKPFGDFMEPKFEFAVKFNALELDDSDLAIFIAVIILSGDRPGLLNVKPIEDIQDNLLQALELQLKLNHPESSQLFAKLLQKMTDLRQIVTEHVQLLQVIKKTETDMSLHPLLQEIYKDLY
Experimental: Experiment 4B. Binding of immodulin peptides to RXR isoforms and domains. 100 ng/well recombinant human RXRa-DBD or RXRa-LBD, or 400 ng/well full length RXR-alpha, RXR-beta, RXR-gamma or PPAR-gamma (Abcam, Cambridge, MA) was adsorbed to wells of a 96-well plate for 60 minutes at room temperature, then blocked with 200 uL 1% BSA in PBS buffer overnight. The plate was washed with PBS and 800 ng/well Streptavidin-Alexa 488 conjugate (SA488)-labelled peptide was added. The plate was incubated for 2 hours at room temperature, washed and counted in a fluorometer (excitation/emission 485/525 nm). Significant binding above background is also shown (**p<0.05). […] When tested against domains of RXR-alpha, these peptides bind the DNA-binding domain (DBD) better than the ligand-binding domain (LBD).

[2] = Experiment 4D binding to FITC-labelled heparin; details: biotinylated peptide 1 ug/well; 1 ug FITC-labelled heparin, 90 minutes
Summary of the method: (§1)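 Biotinylated peptides (1 ug/well) bound to streptavidin plates for 60 min at room temperature, then 1 ug FITC-labelled heparin or hyaluronic acid in PBS added for 90 min at room temperature, in quadruplicate. After washes, fluorescence read at 488/525 nm and counts normalized to immX3 peptide binding = 100.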

[3] = Experiment 4D binding to FITC-labelled hyaluronic acid; details: biotinylated peptide 1 ug/well; 1 ug FITC-labelled hyaluronic acid, 90 minutes
Summary of the method: as §1

[4] = target: T2, AA111-228 DNA-binding domain of RXR-alpha (RXRa-DBD) (Homo sapiens, UniProt P19793); assay: Experiment 4A binding to RXRa-DBD; details: 1 ug/well RXRa-DBD; 800 ng/well SA488-labelled peptide, 60 min; background subtracted
T2 construct: purchased Abcam, Cambridge, MA
T2 sequence (P19793 111-228): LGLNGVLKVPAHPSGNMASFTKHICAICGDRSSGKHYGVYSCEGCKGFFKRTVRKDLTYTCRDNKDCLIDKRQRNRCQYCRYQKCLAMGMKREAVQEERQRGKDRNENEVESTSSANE
Experimental: Experiment 4A. Binding of immodulin peptides to AA111-228 DNA-binding domain of RXR-alpha (RXRa-DBD). 1 ug/well recombinant RXRa-DBD (Abcam, Cambridge, MA) was adsorbed to wells of a 96-well plate for 60 minutes at room temperature, then blocked with 200 uL 1% bovine serum albumin (BSA) in PBS buffer overnight. Plate was washed and 800 ng/well Streptavidin-Alexa 488 conjugate (SA488)-labelled immX peptide was added. The plate was incubated for 60 min at room temperature, washed and counted in a standard fluorometer (excitation/emission 485/525 nm). Background (buffer alone) was subtracted.

Nur77 (NR4A1) = target: T3, Nur77 (NR4A1) (Homo sapiens, UniProt P22736); assay: Experiment 4C binding to full-length Nur77; details: 400 ng/well Nur77; 333 ng/well SA488-labelled peptide, 60 min; background subtracted
T3 construct: purchased Abcam Inc, Cambridge, MA
T3 sequence (P22736 whole entry): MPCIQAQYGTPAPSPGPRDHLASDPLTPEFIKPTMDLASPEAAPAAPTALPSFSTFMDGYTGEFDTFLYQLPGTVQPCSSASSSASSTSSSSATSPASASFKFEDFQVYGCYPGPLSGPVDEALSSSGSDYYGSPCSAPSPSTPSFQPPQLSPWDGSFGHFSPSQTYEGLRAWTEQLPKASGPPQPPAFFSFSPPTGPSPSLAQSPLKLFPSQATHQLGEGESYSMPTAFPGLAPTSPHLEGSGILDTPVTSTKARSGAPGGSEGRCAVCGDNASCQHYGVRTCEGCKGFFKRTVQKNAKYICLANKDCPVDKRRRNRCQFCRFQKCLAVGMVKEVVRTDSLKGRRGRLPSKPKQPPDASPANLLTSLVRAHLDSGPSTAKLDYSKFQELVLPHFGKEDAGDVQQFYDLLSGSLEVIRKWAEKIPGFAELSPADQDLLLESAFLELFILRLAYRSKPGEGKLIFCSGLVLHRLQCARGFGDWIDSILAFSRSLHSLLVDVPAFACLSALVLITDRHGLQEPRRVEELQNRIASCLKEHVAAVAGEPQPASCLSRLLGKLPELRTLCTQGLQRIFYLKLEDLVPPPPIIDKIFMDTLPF
Experimental: 400 ng/well recombinant human Nur77 protein (NR4A1) purchased from Abcam Inc, Cambridge, MA, was adsorbed to wells of a 96-well plate for 90 minutes at room temperature, then blocked with 200 uL 1% BSA in PBS buffer overnight. The plate was washed with PBS and then 333 ng/well Streptavidin-Alexa 488 conjugate (SA488)-labelled imm3 or imm4 peptide was added. The plate was incubated for 60 min at room temperature, washed and counted in a standard fluorometer (excitation/emission 485/525 nm). Background (buffer alone) was subtracted.

| SMILES | COL1 immunoreactivity in supernatants, control (buffer) set to 100 [1] | Binding to PPAR-gamma relative to imm3 binding (=100) (PPAR-gamma) | Heparin binding, counts normalized for immX3 peptide binding=100 [2] | Hyaluronate binding, counts normalized for immX3 peptide binding=100 [3] | Fluorescence, binding to RXRa-DBD [4] | Binding to Nur77 (NR4A1), normalized to imm3 binding=100 (Nur77 (NR4A1)) |
| --- | --- | --- | --- | --- | --- | --- |
| N=C(N)NCCC[C@H](NC(=O)CNC(=O)[C@H](CCCCN)NC(=O)[C@H](CO)NC(=O)[C@@H]1CCCN1C(=O)[C@H](CCCNC(=N)N)NC(=O)[C@H](CS)NC(=O)[C@H](CCC(N)=O)NC(=O)[C@H](CCCCN)NC(=O)[C@H](CCCCN)NC(=O)[C@H](CCCCN)NC(=O)[C@H](Cc1ccc(O)cc1)NC(=O)[C@H](Cc1ccccc1)NC(=O)CNC(=O)[C@H](CCCCN)NC(=O)[C@@H](N)CCCCN)C(=O)N[C@@H](CCCCN)C(=O)N[C@@H](CCCNC(=N)N)C(=O)NCC(=O)N[C@@H](Cc1ccccc1)C(=O)N[C@@H](CS)C(=O)N[C@@H](Cc1c[nH]c2ccccc12)C(=O)O [imm3] (H-KKGFYKKKQCRPSKGRKRGFCW-OH; N-terminus and C-terminus assumed) | 101 | 2.1 ± 1.4 | 104.2 ± 22.0 | 57.2 ± 5.7** | 6,572±129 | 100.0 ± 9.3 |
| CC(C)C[C@H](NC(=O)[C@H](C)NC(=O)[C@@H]1CCCN1C(=O)[C@H](Cc1c[nH]cn1)NC(=O)[C@H](CS)NC(=O)[C@H](CCC(N)=O)NC(=O)[C@H](CCCCN)NC(=O)[C@@H]1CCCN1C(=O)[C@H](Cc1c[nH]cn1)NC(=O)[C@H](Cc1ccccc1)NC(=O)[C@H](CC(N)=O)NC(=O)CNC(=O)[C@H](CC(N)=O)NC(=O)[C@@H](N)CCCNC(=N)N)C(=O)N[C@@H](CC(=O)O)C(=O)NCC(=O)N[C@@H](CCC(N)=O)C(=O)N[C@@H](CCCNC(=N)N)C(=O)NCC(=O)N[C@@H](CCCCN)C(=O)N[C@@H](CS)C(=O)N[C@@H](Cc1c[nH]c2ccccc12)C(=O)O [imm4] (H-RNGNFHPKQCHPALDGQRGKCW-OH; N-terminus and C-terminus assumed) | 105 | 0.1 ± 0.0 | 6.8 ± 24.1 | 14.6 ± 22.6 | 27±31 | 0.3 ± 8.9 |
| CC[C@H](C)[C@H](NC(=O)CNC(=O)[C@H](CCCNC(=N)N)NC(=O)[C@H](CCCCN)NC(=O)[C@H](CCCNC(=N)N)NC(=O)CNC(=O)[C@H](CCCNC(=N)N)NC(=O)[C@H](CO)NC(=O)[C@@H]1CCCN1C(=O)[C@H](CCCCN)NC(=O)[C@H](CS)NC(=O)[C@H](CCC(N)=O)NC(=O)[C@H](CCCCN)NC(=O)[C@H](CCCNC(=N)N)NC(=O)[C@H](CCCCN)NC(=O)[C@H](Cc1ccc(O)cc1)NC(=O)[C@H](Cc1ccccc1)NC(=O)CNC(=O)[C@H](CCCCN)NC(=O)[C@@H](N)CCCNC(=N)N)C(=O)N[C@@H](CS)C(=O)N[C@@H](Cc1c[nH]c2ccccc12)C(=O)O [imm5] (H-RKGFYKRKQCKPSRGRKRGICW-OH; N-terminus and C-terminus assumed) | 93 | 1.6 ± 0.4 | 95.1 ± 25.7 | 60.0 ± 8.6** | 6,802±336 |  |
| N=C(N)NCCC[C@H](NC(=O)[C@H](CCCNC(=N)N)NC(=O)[C@H](CCC(N)=O)NC(=O)CNC(=O)[C@H](CCC(N)=O)NC(=O)[C@H](CO)NC(=O)[C@H](CO)NC(=O)[C@H](CCCNC(=N)N)NC(=O)[C@H](CS)NC(=O)[C@H](CCC(N)=O)NC(=O)[C@H](CCCNC(=N)N)NC(=O)[C@H](CCCCN)NC(=O)[C@H](CCCNC(=N)N)NC(=O)[C@H](Cc1ccc(O)cc1)NC(=O)[C@H](Cc1ccccc1)NC(=O)CNC(=O)[C@H](CCCNC(=N)N)NC(=O)[C@@H](N)Cc1c[nH]cn1)C(=O)NCC(=O)N1CCC[C@H]1C(=O)N[C@@H](CS)C(=O)N[C@@H](Cc1c[nH]c2ccccc12)C(=O)O [imm6] (H-HRGFYRKRQCRSSQGQRRGPCW-OH; N-terminus and C-terminus assumed) | 112 | 6.8 ± 2.0 | 97.2 ± 17.3 | 44.9 ± 14.1** | 587±192 |  |
